Series [1] has as its target T1, human adult muscle nicotinic acetylcholine receptor αβεδ (Homo sapiens, UniProt P02708+P11230+Q04844+Q07001).
T1 construct: expressed in transfected cells; host or cells: Xenopus laevis oocytes injected with cRNA (cDNAs in pRBG4, gifts of A. G. Engel and F. Grassi)
As to the kind of experiment: ACh-evoked currents at adult muscle nAChR in Xenopus oocytes, two-electrode voltage clamp. The series is classed as cell-based. The note with it: read-out: IC50 of block of ACh-evoked currents. An excerpt: The deviations are represented by the standard error of the mean (SEM).
A general note: Two-electrode voltage clamp holds a large cell at a set potential and records current.

On the set-up of series [2]: method as in Dieterich et al., 1984. As to conditions: humans; oral 2 × 260 mg quinine sulfate; ref Dieterich et al., 1984; cited from earlier work.
The subject of series [3] is recombinant muscle receptor expressed in HEK293 cells. The note with it: concentrations up to 30 μM; ref Sieb et al., 1996; cited from earlier work.
Series [4] has as its target human heteromeric 5HT3AB-receptors. More on the design: method as in Thompson and Lummis, 2008. The note with it: ref Thompson and Lummis, 2008; cited from earlier work.
Series [5] addresses human homomeric 5HT3A-receptors. More on the design: method as in Thompson and Lummis, 2008. As to conditions: ref Thompson and Lummis, 2008; cited from earlier work.
Series [6] relates to neuronal rat α9α10 nAChRs. Further details: method as in Ballestero et al., 2005. The note with it: ref Ballestero et al., 2005; cited from earlier work.
Series [7] has as its target human GABA(A)-receptors. Further details: method as in Thompson and Lummis, 2008. As to conditions: ref Thompson and Lummis, 2008; cited from earlier work.

Where a name gives a salt, the structure may show the parent alone.

T1 sequence (P02708 21-457): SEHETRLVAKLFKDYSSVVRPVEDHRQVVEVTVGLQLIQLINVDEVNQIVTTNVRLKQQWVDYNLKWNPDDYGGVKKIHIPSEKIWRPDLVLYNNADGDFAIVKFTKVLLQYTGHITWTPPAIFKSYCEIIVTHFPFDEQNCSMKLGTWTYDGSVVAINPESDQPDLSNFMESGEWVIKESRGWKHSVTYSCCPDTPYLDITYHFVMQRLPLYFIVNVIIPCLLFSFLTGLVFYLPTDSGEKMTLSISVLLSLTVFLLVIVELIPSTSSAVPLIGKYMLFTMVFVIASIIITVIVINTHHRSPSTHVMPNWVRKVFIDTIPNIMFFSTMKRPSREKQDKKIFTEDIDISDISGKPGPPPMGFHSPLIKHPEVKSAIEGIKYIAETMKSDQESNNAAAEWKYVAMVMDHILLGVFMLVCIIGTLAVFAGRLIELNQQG
T1 sequence (P11230 24-501): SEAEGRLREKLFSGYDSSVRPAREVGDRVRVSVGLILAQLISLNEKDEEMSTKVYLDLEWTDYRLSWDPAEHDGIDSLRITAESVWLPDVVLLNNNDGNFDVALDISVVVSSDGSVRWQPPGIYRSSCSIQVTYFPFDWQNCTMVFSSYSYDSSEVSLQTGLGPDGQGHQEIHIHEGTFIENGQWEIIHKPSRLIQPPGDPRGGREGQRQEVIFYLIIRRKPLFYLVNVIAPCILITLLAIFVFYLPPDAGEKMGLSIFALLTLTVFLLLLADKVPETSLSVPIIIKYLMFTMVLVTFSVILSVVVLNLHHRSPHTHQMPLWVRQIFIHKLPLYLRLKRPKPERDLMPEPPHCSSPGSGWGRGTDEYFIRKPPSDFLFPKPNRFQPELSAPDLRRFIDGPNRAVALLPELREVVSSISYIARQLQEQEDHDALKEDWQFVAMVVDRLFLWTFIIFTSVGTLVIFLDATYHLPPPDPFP
T1 sequence (Q07001 22-517): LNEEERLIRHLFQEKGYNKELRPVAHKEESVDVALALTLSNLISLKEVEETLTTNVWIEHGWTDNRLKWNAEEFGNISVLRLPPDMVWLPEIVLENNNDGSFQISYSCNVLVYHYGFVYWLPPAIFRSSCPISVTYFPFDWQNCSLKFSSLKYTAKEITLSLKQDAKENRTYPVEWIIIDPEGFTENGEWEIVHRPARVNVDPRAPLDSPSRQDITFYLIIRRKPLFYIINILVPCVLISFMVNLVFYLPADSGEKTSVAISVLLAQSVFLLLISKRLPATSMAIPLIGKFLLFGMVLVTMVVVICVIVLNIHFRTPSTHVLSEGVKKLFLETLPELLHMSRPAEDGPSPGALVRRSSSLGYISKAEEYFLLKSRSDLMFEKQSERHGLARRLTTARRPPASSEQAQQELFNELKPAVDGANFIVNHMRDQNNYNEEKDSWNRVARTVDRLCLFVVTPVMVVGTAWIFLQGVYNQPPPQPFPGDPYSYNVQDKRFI
T1 sequence (Q04844 21-493): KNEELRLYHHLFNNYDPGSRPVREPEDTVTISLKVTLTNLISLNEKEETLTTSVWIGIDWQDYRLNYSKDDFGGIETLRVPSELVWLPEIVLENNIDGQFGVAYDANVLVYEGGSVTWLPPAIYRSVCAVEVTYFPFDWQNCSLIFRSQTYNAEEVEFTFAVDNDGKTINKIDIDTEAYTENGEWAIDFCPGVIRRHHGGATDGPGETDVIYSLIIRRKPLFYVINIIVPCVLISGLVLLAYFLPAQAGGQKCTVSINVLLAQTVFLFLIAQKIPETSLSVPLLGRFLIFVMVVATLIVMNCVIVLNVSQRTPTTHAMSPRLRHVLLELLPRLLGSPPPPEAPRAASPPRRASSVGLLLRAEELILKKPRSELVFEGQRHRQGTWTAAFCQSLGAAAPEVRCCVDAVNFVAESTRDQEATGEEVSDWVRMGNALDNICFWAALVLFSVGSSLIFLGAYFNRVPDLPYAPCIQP

For the compound `CCN(CC)CCCC(C)Nc1ccnc2cc(Cl)ccc12` (stereo not shown) [chloroquine], the IC50 in series [1] came out at 2.22 µM.

`C=C[C@H]1C[N@@]2CC[C@H]1C[C@H]2[C@H](O)c1ccnc2ccc(OC)cc12` [quinine sulfate]: in series [2], the “Time of peak plasma concentration after intake” value is given as “about 2 h”.

In the case of `C=C[C@H]1C[N@@]2CC[C@H]1C[C@H]2[C@H](O)c1ccnc2ccc(OC)cc12` [quinine], the “Inhibition of the binding of α-bungarotoxin” value in series [3] is on record as “could not inhibit”. Further, the IC50 in series [4] was about 16 µM; in series [5], about 1 µM; in series [6], about 1 µM; in series [7], about 1600 µM.

One may read the IC50 as the concentration needed to halve the response being measured.

The record behind these values is publication PMC6255974 (Frontiers in Pharmacology, 2018).
